Patent US20140018384A1, “QUINOLINONE DERIVATIVES FOR USE IN THE TREATMENT OF AN AUTOIMMUNE DISEASE AND/OR AN INFLAMMATORY DISEASE” (PRONOXIS AB, priority 2011, published 2014)
Like-named read-outs stand apart in the source and are kept apart here.

Test system: PLB-985 cells
Test: ROS production (isoluminol/HRP luminescence) in PLB-985 cells, Biological Example 1
Type: cell-based
Method: To cells (HL-60 or PLB-985) in HBSS medium was added compound (25 or 50 μM), isoluminol and Horse Radish Peroxidase, fraction II. Luminescence was measured for 10-30 minutes and the area under the […] curve was divided by that from a control experiment to give the activity expressed as fold change.
Each assay indicated below was performed at a different site, at a different time, by different personnel and/or using different cell lines, concentrations and controls. The cell line, concentration of example compound and control used in respect of each assay were as indicated below. The values obtained from these different setups (each using an otherwise identical assay) are given as Activity A, B, C, D or E in Table 5 below. The values are expressed as fold increase of NADPH activity in the presence of the relevant of compound (as indicated below) compared to the relevant control (as indicated below).
Activity A: HL-60 cells; 50 μM compound vs. blank Activity B: PLB-985 cells; 25 μM compound vs. blank Activity C, D and E: PLB-985 cells; 25 μM compound vs. DMSO

[1] = 25 μM compound vs. DMSO, setup D, read-out: Activity D (fold increase of NADPH activity compared to control)
[2] = 25 μM compound vs. DMSO, setup C, read-out: Activity C (fold increase of NADPH activity compared to control)
[3] = 25 μM compound vs. blank, read-out: Activity B (fold increase of NADPH activity compared to control)
[4] = 25 μM compound vs. DMSO, setup E, read-out: Activity E (fold increase of NADPH activity compared to control)

SMILES | fold induction at 25 µM [1] | fold induction at 25 µM [2] | fold induction at 25 µM [3] | fold induction at 25 µM [4]
COc1ccc2c(=O)c(C(=O)c3ccc4ccccc4c3)cn(CC(=O)Nc3ccc(Cl)cc3)c2c1 [Example 18, N-(4-Chlorophenyl)-2-[7-methoxy-3-(2-naphthoyl)-4-oxo-1-quinolinyl]acetamide] | 12.6 |  |  | 
O=C(Cn1cc(C(=O)c2ccc(Cl)cc2)c(=O)c2cc3c(cc21)OCO3)Nc1ccc(Cl)cc1 [Example 51, 2-[3-(4-Chlorobenzoyl)-6,7-methylenedioxy-4-oxo-1-quinolinyl]-N-(4-chlorophenyl)acetamide] |  | 66.7 | 174 | 
COc1ccc(NC(=O)Cn2cc(C(=O)c3ccc(C)c(C)c3)c(=O)c3cc4c(cc32)OCO4)cc1 [Example 47, N-p-Anisyl-2-[3-(3,4-dimethylbenzoyl)-6,7-methylenedioxy-4-oxo-1-quinolinyl]acetamide] |  | 58.4 | 144 | 
COc1ccc(NC(=O)Cn2cc(C(=O)c3ccc(Cl)cc3)c(=O)c3cc4c(cc32)OCO4)cc1 [Example 90, N-p-Anisyl-2-[3-(4-chlorobenzoyl)-6,7-methylenedioxy-4-oxo-1-quinolinyl]acetamide] |  | 37.6 | 40.9 | 
Cc1ccc(C(=O)c2cn(CC(=O)Nc3ccc(Cl)cc3)c3cc4c(cc3c2=O)OCO4)cc1 [Example 49, N-(4-Chlorophenyl)-2-(3-p-toluoyl-6,7-methylenedioxy-4-oxo-1-quinolinyl)acetamide] |  | 56.4 | 152 | 
CCOc1ccc(C(=O)c2cn(CC(=O)Nc3ccc(Cl)cc3)c3cc4c(cc3c2=O)OCO4)cc1 [Example 61, N-(4-Chlorophenyl)-2-[3-(4-ethoxybenzoyl)-6,7-methylenedioxy-4-oxo-1-quinolinyl]acetamide] |  | 28.5 | 35.9 | 
O=C(Cn1cc(C(=O)c2ccccc2)c(=O)c2cc3c(cc21)OCO3)Nc1ccc2c(c1)OCO2 [Example 64, 2-(3-Benzoyl-6,7-methylenedioxy-4-oxo-1-quinolinyl)-N-(3,4-methylenedioxyphenyl)acetamide] |  | 27.9 | 41.1 | 
COc1ccc(NC(=O)Cn2cc(C(=O)c3ccco3)c(=O)c3cc4c(cc32)OCO4)cc1 [Example 26, N-p-Anisyl-2-[3-(2-furoyl)-6,7-methylenedioxy-4-oxo-1-quinolinyl]acetamide] |  | 14.9 |  | 
O=C(Cn1cc(C(=O)c2ccc(Cl)cc2)c(=O)c2cc3c(cc21)OCO3)Nc1ccc2c(c1)OCO2 [Example 88, 2-[3-(4-Chlorobenzoyl)-6,7-methylenedioxy-4-oxo-1-quinolinyl]-N-(3,4-methylenedioxyphenyl)acetamide] |  | 31.4 |  | 
COc1ccc(NC(=O)Cn2cc(C(=O)c3ccc(F)cc3)c(=O)c3cc(OC)ccc32)cc1 [Example 107, N-p-Anisyl-2-[3-(4-fluorobenzoyl)-6-methoxy-4-oxo-1-quinolinyl]acetamide] | 6.6 |  |  | 
COc1ccc(NC(=O)Cn2cc(C(=O)c3ccccc3)c(=O)c3cc(OC)c(OC)cc32)cc1 [Example 103, N-p-Anisyl-2-(3-benzoyl-6,7-dimethoxy-4-oxo-1-quinolinyl)acetamide] | 3.7 |  |  | 
COc1ccc2c(c1)c(=O)c(C(=O)c1ccc(F)cc1)cn2CC(=O)Nc1ccc(C)cc1 [Example 37, 2-[3-(4-fluorobenzoyl)-6-methoxy-4-oxo-1-quinolinyl]-N-p-tolylacetamide] |  |  |  | 8.4
O=C(Cn1cc(C(=O)c2ccc3ccccc3c2)c(=O)c2cc3c(cc21)OCO3)Nc1cccnc1 [Example 12, 2-[6,7-Methylenedioxy-3-(2-naphthoyl)-4-oxo-1-quinolinyl]-N-(3-pyridyl)acetamide] |  |  |  | 3.2
O=C(Cn1cc(C(=O)c2ccc3ccccc3c2)c(=O)c2cc3c(cc21)OCO3)Nc1ccc(Cl)cn1 [Example 28, N-(5-Chloro-2-pyridyl)-2-[6,7-methylenedioxy-3-(2-naphthoyl)-4-oxo-1-quinolinyl]-acetamide] |  | 16.1 |  | 
COc1cc(NC(=O)Cn2cc(C(=O)c3ccc(C)c(C)c3)c(=O)c3cc4c(cc32)OCO4)cc(OC)c1 [Example 73, N-(3,5-Dimethoxyphenyl)-2-[3-(3,4-dimethylbenzoyl)-6,7-methylenedioxy-4-oxo-1-quinolinyl]acetamide] |  | 17.1 | 15.2 | 
COc1cccc(NC(=O)Cn2cc(C(=O)c3ccc(Cl)cc3)c(=O)c3cc4c(cc32)OCO4)c1 [Example 69, N-(m-Anisyl)-2-[3-(4-chlorobenzoyl)-6,7-methylenedioxy-4-oxo-1-quinolinyl]acetamide] |  | 4 | 4.6 | 
CCc1ccc(NC(=O)Cn2cc(S(=O)(=O)c3ccccc3)c(=O)c3cc4c(cc32)OCO4)cc1 [Example 82, 2-(3-Benzenesulfonyl-6,7-methylenedioxy-4-oxo-1-quinolinyl)-N-(4-ethylphenyl)acetamide] |  | 5.9 |  | 
COc1cccc(NC(=O)Cn2cc(C(=O)c3ccccc3)c(=O)c3cc4c(cc32)OCO4)c1 [Example 68, N-(m-Anisyl)-2-(3-benzoyl-6,7-methylenedioxy-4-oxo-1-quinolinyl)acetamide] |  | 6.7 | 10.1 | 
CCCc1ccc(NC(=O)Cn2cc(C(=O)c3ccc4ccccc4c3)c(=O)c3cc4c(cc32)OCO4)cc1 [Example 9, 2-[6,7-Methylenedioxy-3-(2-naphthoyl)-4-oxo-1-quinolinyl]-N-(4-propylphenyl)acetamide] |  |  |  | 2
O=C(Cn1cc(C(=O)c2ccc3ccccc3c2)c(=O)c2cc3c(cc21)OCO3)Nc1ccc(C(F)(F)F)cc1 [Example 11, 2-[6,7-Methylenedioxy-3-(2-naphthoyl)-4-oxo-1-quinolinyl]-N-(4-trifluoromethylphenyl)acetamide] |  |  |  | 8.8
COc1ccc(NC(=O)Cn2cc(C(=O)c3ccc(F)cc3)c(=O)c3cc4c(cc32)OCO4)cc1OC [Example 31, N-(3,4-Dimethoxyphenyl)-2-[3-(4-fluorobenzoyl)-6,7-methylenedioxy-4-oxo-1-quinolinyl]acetamide] |  | 49.5 |  | 
COc1ccc(NC(=O)Cn2cc(C(=O)c3ccc(C)cc3)c(=O)c3cc4c(cc32)OCO4)cc1 [Example 46, N-p-Anisyl-2-(6,7-methylenedioxy-4-oxo-3-p-toluoyl-1-quinolinyl)acetamide] |  | 40.7 | 127 | 
COc1ccc(NC(=O)Cn2cc(C(=O)c3ccc(F)cc3)c(=O)c3cc(OC)c(OC)cc32)cc1 [Example 105, N-p-Anisyl-2-[6,7-dimethoxy-3-(4-fluorobenzoyl)-4-oxo-1-quinolinyl]acetamide] | 2 |  |  | 
O=C(Cn1cc(C(=O)c2ccc3ccccc3c2)c(=O)c2cc3c(cc21)OCO3)Nc1ccc(OC(F)(F)F)cc1 [Example 5, 2-[6,7-Methylenedioxy-3-(2-naphthoyl)-4-oxo-1-quinolinyl]-N-(4-trifluoromethoxyphenyl)acetamide] |  |  |  | 4.3
O=C(Cn1cc(S(=O)(=O)c2ccc(F)cc2)c(=O)c2cc3c(cc21)OCO3)Nc1ccc(F)cc1 [Example 83, 2-[3-(4-Fluorobenzenesulfonyl)-6,7-methylenedioxy-4-oxo-1-quinolinyl]-N-(4-fluorophenyl)acetamide] |  | 2 |  | 
